Assay results: article PMC6536313 (Bioorganic & medicinal chemistry, 2019)

Columns and labels:
σ2 receptor (σ2R) = σ2 receptor (σ2R) (Homo sapiens, UniProt Q5BJF2); test: Sigma-2 receptor radioligand binding; settings: for σ2R pKi ± SEM: Mean ± SEM
σ1 receptor (σ1R) = σ1 receptor (σ1R) (Homo sapiens, UniProt Q99720); test: Sigma-1 receptor radioligand binding
[1] = on removal of both chloro and fluoro substituents (ether analogs 13-15)

Sequence of σ2 receptor (σ2R) (Q5BJF2 whole entry, species assumed): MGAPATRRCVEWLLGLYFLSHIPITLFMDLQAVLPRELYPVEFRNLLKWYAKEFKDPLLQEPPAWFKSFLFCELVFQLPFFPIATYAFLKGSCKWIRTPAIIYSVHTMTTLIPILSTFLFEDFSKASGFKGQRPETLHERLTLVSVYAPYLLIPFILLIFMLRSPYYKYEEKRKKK
Sequence of σ1 receptor (σ1R) (Q99720 whole entry, species assumed): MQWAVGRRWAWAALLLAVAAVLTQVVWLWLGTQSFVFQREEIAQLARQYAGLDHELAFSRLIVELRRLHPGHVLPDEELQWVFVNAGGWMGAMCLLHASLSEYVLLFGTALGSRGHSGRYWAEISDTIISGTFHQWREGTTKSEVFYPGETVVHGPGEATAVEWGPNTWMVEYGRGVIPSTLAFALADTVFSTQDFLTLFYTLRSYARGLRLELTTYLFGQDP

`O=C(CCCN1CCCN(c2ccccn2)CC1)c1ccc(F)cc1` [Compound 3, 1-(4-fluorophenyl)-4-(4-(pyridin-2-yl)-1,4-diazepan-1-yl)butan-1-one] was tested, and the “σ2R pKi ± SEM” value (σ2 receptor (σ2R)) was 7.49 ± 0.09.
In the case of `Fc1ccc(CCCCN2CCCN(c3ccc(Cl)cc3)CC2)cc1` [Compound 5], the “σ2R pKi ± SEM” value (σ2 receptor (σ2R)) is reported as 8.07 ± 0.06.
For `Fc1ccc(SCCCN2CCCN(c3ccc(Cl)cn3)CC2)cc1` [Compound 7, 1-(5-chloropyridin-2-yl)-4-(3-((4-fluorophenyl)thio)propyl)-1,4-diazepane], the “σ2R pKi ± SEM” value (σ2 receptor (σ2R)) was 8.65 ± 0.05.
With `Fc1ccc(CCCCN2CCN(c3ccc(Cl)cn3)CC2)cc1` [Compound 10, 1-(5-chloropyridin-2-yl)-4-(4-(4-fluorophenyl)butyl)piperazine] the “σ2R pKi ± SEM” value (σ2 receptor (σ2R)) was 7.37 ± 0.05.
For `[O-][S+](CCCN1CCN(c2ccc(Cl)cc2)CC1)c1ccc(F)cc1` (centres unmarked) [Compound 12], the “fold reduction/loss of binding affinity at σ2 receptor” value (σ2 receptor (σ2R); relative to compound 8) was > 71 fold and the “fold reduction/loss of binding affinity at σ1 receptor” value (σ1 receptor (σ1R); relative to compound 8) was “greater than 45 fold”.
`Clc1ccc(N2CCN(CCCOc3ccccc3)CC2)cc1` [Compound 13] was tested, and the “σ2R pKi ± SEM” value (σ2 receptor (σ2R)) was 7.48 ± 0.09.
`c1ccc(OCCCN2CCN(c3ccccc3)CC2)cc1` [Compound 15] was tested, and the “fold decrease in binding affinity at σ2 receptor” value (σ2 receptor (σ2R); [1]) was 2–5 fold and the “fold decrease in binding affinity at σ1 receptor” value (σ1 receptor (σ1R); [1]) was 2–5 fold.
In the case of `OC1(c2ccc(Cl)cc2)CC2CCC(C1)N2CCCCc1ccc(F)cc1` (centres unmarked) [Compound 17], the “fold lower affinity for σ2 receptor” value (σ2 receptor (σ2R); relative to compound 5) is reported as 3 fold and the “fold lower affinity for σ1 receptor” value (σ1 receptor (σ1R); relative to compound 5) is reported as 6 fold.
